Experimental findings from patent US8227498B2, “Inhibitors of glutaminyl cyclase” (Probiodrug AG, priority 2007, dated 2012) are described below.

The target of the test is glutaminyl cyclase (QC) (Homo sapiens, UniProt Q16769). In words: QC inhibitor assay (fluorometric/spectrophotometric QC activity assays with inhibitory compound added).
Chain of glutaminyl cyclase (QC) (Q16769 29-361): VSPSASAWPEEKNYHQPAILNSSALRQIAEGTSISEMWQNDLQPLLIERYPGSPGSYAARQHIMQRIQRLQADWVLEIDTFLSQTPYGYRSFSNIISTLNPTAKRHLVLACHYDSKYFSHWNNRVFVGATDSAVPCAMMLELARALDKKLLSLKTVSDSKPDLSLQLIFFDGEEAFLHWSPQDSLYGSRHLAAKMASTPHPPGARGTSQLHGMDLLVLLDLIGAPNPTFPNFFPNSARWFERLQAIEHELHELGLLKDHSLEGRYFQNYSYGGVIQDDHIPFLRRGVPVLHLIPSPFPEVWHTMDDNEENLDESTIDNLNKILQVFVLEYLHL

Experimental: All measurements were performed with a BioAssay Reader HTS-7000Plus for microplates (Perkin Elmer) at 30° C. QC activity was evaluated fluorometrically using H-Gln-βNA. The samples consisted of 0.2 mM fluorogenic substrate, 0.25 U pyroglutamyl aminopeptidase (Unizyme, Hørsholm, Denmark) in 0.2 M Tris/HCl, pH 8.0 containing 20 mM EDTA and an appropriately diluted aliquot of QC in a final volume of 250 μl. Excitation/emission wavelengths were 320/410 nm. The assay reactions were initiated by addition of glutaminyl cyclase. QC activity was determined from a standard curve of β-naphthylamine under assay conditions. One unit is defined as the amount of QC catalyzing the formation of 1 μmol pGlu-MNA from H-Gln-βNA per minute under the described conditions.
In a second fluorometric assay, QC was activity determined using H-Gln-AMC as substrate. Reactions were carried out at 30° C. utilizing the NOVOStar reader for microplates (BMG labtechnologies). The samples consisted of varying concentrations of the fluorogenic substrate, 0.1 U pyroglutamyl aminopeptidase (Qiagen) in 0.05 M Tris/HCl, pH 8.0 containing 5 mM EDTA and an appropriately diluted aliquot of QC in a final volume of 250 μl. Excitation/emission wavelengths were 380/460 nm. The assay reactions were initiated by addition of glutaminyl cyclase. […] The kinetic data were evaluated using GraFit sofware.
This novel assay was used to determine the kinetic parameters for most of the QC substrates. […] Samples consisted of the respective QC substrate, 0.3 mM NADH, 14 mM α-Ketoglutaric acid and 30 U/ml glutamate dehydrogenase in a final volume of 250 μl.
The initial velocities were evaluated and the enzymatic activity was determined from a standard curve of ammonia under assay conditions. All samples were measured at 30° C., using either the [sequence]luor Plus or the Sunrise (both from TECAN) reader for microplates. Kinetic data was evaluated using GraFit software.
For inhibitor testing, the sample composition was the same as described above, except of the putative inhibitory compound added. For a rapid test of QC-inhibition, samples contained 4 mM of the respective inhibitor and a substrate concentration at 1 KM. For detailed investigations of the inhibition and determination of Ki-values, influence of the inhibitor on the auxiliary enzymes was investigated first. […] The inhibitory constant was evaluated by fitting the set of progress curves to the general equation for competitive inhibition using GraFit software.

By IC50 is commonly meant the concentration at which inhibition is half-maximal. A high value points to weaker potency. Broadly, the Ki is a dissociation constant, usually derived from enzyme kinetics or from competition with a known ligand. Consider `CCOc1ccc(N/C(=N\C#N)NCCCn2cnc(C)c2)cc1` [Example 17, 2-cyano(4-ethoxyphenyl)-3-(3-(4-methyl-1H-imidazol-1-yl)propyl)guanidine], for which the 50% inhibitory concentration (IC50) was found to be 5.69 µM and the Ki turned out to be 1.33 µM. In the case of `Cc1cncn1CCCN/C(=N\C#N)Nc1ccc2nsnc2c1` [Example 12, (3-(5-methyl-1H-imidazol-1-yl)propyl)-3-(benzo[c][1,2,5]thiadiazol-6-yl)-2-cyanoguanidine], half-maximal inhibition (IC50) required 1.34 µM and the affinity, expressed as Ki, was 0.132 µM.

Turning to `Cc1cn(CCCN/C(=N/C#N)Nc2ccc(C#N)cc2)cn1` [Example 26, 2-cyano(4-cyanophenyl)-3-(3-(4-methyl-1H-imidazol-1-yl)propyl)guanidine], 30.1 µM corresponded to half-maximal inhibition (IC50). `Cc1cncn1CCCN/C(=N\C#N)Nc1cccc2ccccc12` [Example 11, (3-(5-methyl-1H-imidazol-1-yl)propyl)-2-cyano-3-(naphthalen-1-yl)guanidine]: the midpoint of inhibition, the IC50, lay at 0.61 µM and the affinity corresponds to a Ki of 0.103 µM.

The compound `Cc1cncn1CCCN/C(=N/C#N)Nc1ccc(C#N)cc1` [Example 4, 2-cyano(4-cyanophenyl)-3-(3-(5-methyl-1H-imidazol-1-yl)propyl)guanidine] came in with an IC50 of 1.05 µM and a Ki of 0.186 µM. As to `COc1cc(N/C(=N\C#N)NCCCn2cnc(C)c2)cc(OC)c1` [Example 18, 2-cyano(3,5-dimethoxyphenyl)-3-(3-(4-methyl-1H-imidazol-1-yl)propyl)guanidine], the IC50 amounted to 12.3 µM. `Cc1cncn1CCCN/C(=N\C#N)Nc1ccc(C(C)C)cc1` [Example 2] had an IC50 of 0.55 µM and a Ki of 0.091 µM.

In turn, `Cc1cn(CCCN/C(=N/C#N)Nc2ccc(Cl)c(Cl)c2)cn1` [Example 27, (3,4-dichlorophenyl)-2-cyano-3-(3-(4-methyl-1H-imidazol-1-yl)propyl)guanidine] showed an IC50 of 17.1 µM and a Ki of 2.6 µM. Take `CCOc1ccc(N/C(=N\C#N)NCCCn2cncc2C)cc1` [Example 6, 2-cyano(4-ethoxyphenyl)-3-(3-(5-methyl-1H-imidazol-1-yl)propyl)guanidine]: 1.09 µM corresponded to half-maximal inhibition (IC50) and the Ki is 0.091 µM.

Take `CCc1ccc(N/C(=N/C#N)NCCCn2cncc2C)cc1` [Example 1, 2-cyano(4-ethylphenyl)-3-(3-(5-methyl-1H-imidazol-1-yl)propyl)guanidine]: the midpoint of inhibition, the IC50, lay at 0.62 µM and the Ki is 0.17 µM. Regarding `Cc1cc(C)c(N/C(=N/C#N)NCCCn2cnc(C)c2)c(C)c1` [Example 20, 2-cyano(mesityl)-3-(3-(4-methyl-1H-imidazol-1-yl)propyl)guanidine], it took 8.5 µM to reach half-maximal inhibition (IC50) and the inhibitory constant (Ki) is 1.28 µM.

`Cc1cn(CCCN/C(=N/C#N)Nc2ccc(-c3ccccc3)cc2)cn1` [Example 29, 2-cyano-1-[3-(4-methyl-1H-imidazol-1-yl)propyl]-4-phenylbenzene-1-guanidine]: the IC50 was 10.4 µM and the affinity, expressed as Ki, was 1.58 µM. Take `CCc1ccc(N/C(=N/C#N)NCCCn2cnc(C)c2)cc1` [Example 22, 2-cyano(4-ethylphenyl)-3-(3-(4-methyl-1H-imidazol-1-yl)propyl)guanidine]: the IC50 was 13.9 µM and affinity was put at a Ki of 2.37 µM. In the same order, the values of `Cc1cc(C)c(N/C(=N/C#N)NCCCn2cncc2C)c(C)c1` [Example 8, (3-(5-methyl-1H-imidazol-1-yl)propyl)-2-cyano-3-mesitylguanidine] are 0.624 µM and 0.106 µM.

For the compound `Cc1cn(CCCN/C(=N/C#N)Nc2ccc3ccccc3c2)cn1` [Example 30, 2-cyano(3-(4-methyl-1H-imidazol-1-yl)propyl)-3-(naphthalen-2-yl)guanidine], the IC50 was 12.4 µM and the Ki was determined as 1.87 µM. On to `Cc1cncn1CCCN/C(=N\C#N)Nc1ccc2c(c1)OCO2` [Example 14, (benzo[d][1,3]dioxol-6-yl)-2-cyano-3-(3-(5-methyl-1H-imidazol-1-yl)propyl)guanidine], for which the IC50 amounted to 0.59 µM and the Ki came out at 0.11 µM.

Consider `COc1ccc(N/C(=N/C#N)NCCCn2cncc2C)cc1` [Example 15, 2-cyano(4-methoxyphenyl)-3-(3-(5-methyl-1H-imidazol-1-yl)propyl)guanidine], for which half-maximal inhibition (IC50) was put at 0.79 µM and affinity was put at a Ki of 0.074 µM. `COc1ccc(N/C(=N\C#N)NCCCn2cnc(C)c2)cc1` [Example 28, 2-cyano(4-methoxyphenyl)-3-(3-(4-methyl-1H-imidazol-1-yl)propyl)guanidine] returned a half-inhibitory concentration (IC50) of 14.4 µM and a Ki of 2.03 µM. `Cc1cncn1CCCN/C(=N\C#N)Nc1ccc2ccccc2c1` [Example 10, (3-(5-methyl-1H-imidazol-1-yl)propyl)-2-cyano-3-(naphthalen-2-yl)guanidine] registered an IC50 of 1.09 µM and a Ki of 0.094 µM. With `Cc1cn(CCCN/C(=N/C#N)Nc2ccc3nsnc3c2)cn1` [Example 24, (benzo[c][1,2,5]thiadiazol-6-yl)-2-cyano-3-(3-(4-methyl-1H-imidazol-1-yl)propyl)guanidine], the IC50 is 12.2 µM and the inhibitory constant (Ki) amounted to 2.21 µM. In the case of `Cc1cn(CCCN/C(=N\C#N)Nc2cccc3ccccc23)cn1` [Example 23, 2-cyano(3-(4-methyl-1H-imidazol-1-yl)propyl)-3-(naphthalen-1-yl)guanidine], the IC50 is 13.8 µM and the Ki is 1.69 µM. Take `COc1cc(N/C(=N/C#N)NCCCn2cncc2C)cc(OC)c1` [Example 16, 2-cyano(3,5-dimethoxyphenyl)-3-(3-(5-methyl-1H-imidazol-1-yl)propyl)guanidine]: half-maximal inhibition (IC50) was put at 0.726 µM and the Ki stood at 0.125 µM. As to `Cc1cn(CCCN/C(=N\C#N)Nc2ccc(C(C)C)cc2)cn1` [Example 21, 2-cyano(4-isopropylphenyl)-3-(3-(4-methyl-1H-imidazol-1-yl)propyl)guanidine], the IC50 is 14.9 µM and the Ki was found to be 2.31 µM.
